These results are taken from BindingDB's records for doi:10.1021/jm701311r (Georgia Institute of Technology, 2008).

Holding throughout (test): AE Enzyme Inhibition Assay
Experiment [1] concerns the target T1, Legumain (Ixodes ricinus, UniProt Q6PRC7).
T1 sequence (Q6PRC7 whole entry): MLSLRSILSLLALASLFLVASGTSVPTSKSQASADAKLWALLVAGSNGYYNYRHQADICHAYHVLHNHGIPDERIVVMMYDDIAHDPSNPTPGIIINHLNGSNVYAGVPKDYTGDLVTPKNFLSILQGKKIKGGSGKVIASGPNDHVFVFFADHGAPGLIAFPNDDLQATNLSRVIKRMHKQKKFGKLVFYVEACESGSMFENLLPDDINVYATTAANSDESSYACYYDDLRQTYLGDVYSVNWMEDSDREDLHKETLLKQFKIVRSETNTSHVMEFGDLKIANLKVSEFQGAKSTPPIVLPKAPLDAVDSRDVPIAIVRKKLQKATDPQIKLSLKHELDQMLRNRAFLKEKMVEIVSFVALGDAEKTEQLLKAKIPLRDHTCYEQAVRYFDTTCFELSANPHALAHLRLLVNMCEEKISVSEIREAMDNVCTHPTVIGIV
Conditions: 25 °C. On the procedure:
(§1) AE activity in the induction medium was measured with the substrate Cbz-Ala-Ala-Asn-AMC. In a black 96-well microtiter plate, aza-peptidyl inhibitors were added to the reaction buffer containing the activated enzyme, and allowed to incubate at room temperature for 20 min. Then, substrate Cbz- Ala-Ala-Asn-AMC was added and the reaction allowed proceeding for 20 min. Plotting the relative fluorescence units (RFU)/min against the inhibitor concentration (uM) permitted calculation of the IC50 value.

The target of experiment [2] is T2, Clan CD, family C13, asparaginyl endopeptidase-like cysteine peptidase (Trichomonas vaginalis (strain ATCC PRA-98 / G3), UniProt A2DYT2).
T2 sequence (A2DYT2 whole entry): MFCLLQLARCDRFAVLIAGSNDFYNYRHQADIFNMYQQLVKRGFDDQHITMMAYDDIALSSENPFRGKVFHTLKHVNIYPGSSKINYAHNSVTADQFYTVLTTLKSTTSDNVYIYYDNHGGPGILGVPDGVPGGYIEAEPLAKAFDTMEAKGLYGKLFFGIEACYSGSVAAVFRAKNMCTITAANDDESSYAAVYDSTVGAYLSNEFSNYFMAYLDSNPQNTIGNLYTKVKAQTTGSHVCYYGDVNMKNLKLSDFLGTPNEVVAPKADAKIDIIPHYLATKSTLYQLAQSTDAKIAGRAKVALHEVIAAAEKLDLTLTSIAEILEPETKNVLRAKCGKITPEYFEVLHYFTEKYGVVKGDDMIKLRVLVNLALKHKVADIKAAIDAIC
Here is the method: as §1

Experiment [3] addresses T3, Legumain (Schistosoma mansoni, UniProt Q9NFY9).
T3 sequence (Q9NFY9 whole entry): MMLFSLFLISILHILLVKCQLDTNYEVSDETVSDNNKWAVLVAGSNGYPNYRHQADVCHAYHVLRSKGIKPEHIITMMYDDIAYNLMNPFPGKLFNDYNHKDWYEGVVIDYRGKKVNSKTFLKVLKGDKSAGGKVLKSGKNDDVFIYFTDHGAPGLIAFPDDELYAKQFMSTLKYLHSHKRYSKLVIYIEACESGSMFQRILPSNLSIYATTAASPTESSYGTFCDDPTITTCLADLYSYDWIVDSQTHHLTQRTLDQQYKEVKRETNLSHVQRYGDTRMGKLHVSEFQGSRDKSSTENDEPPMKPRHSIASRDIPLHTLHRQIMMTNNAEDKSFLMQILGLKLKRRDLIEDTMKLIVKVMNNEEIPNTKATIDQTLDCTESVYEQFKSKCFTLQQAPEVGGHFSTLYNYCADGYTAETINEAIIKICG
Here is the method: as §1

For `C[C@H](NC(=O)OCc1ccccc1)C(=O)N[C@@H](C)C(=O)NN(CC(N)=O)C(=O)C=CC(=O)N1CCc2ccccc21` [benzyl N-[(1S)-1-{[(1S)-1-[N'-(carbamoylmethyl)-N'-[(2E)-4-(2,3-dihydro-1H-indol-1-yl)-4-oxobut-2-enoyl]hydrazinecarbonyl]ethyl]carbamoyl}ethyl]carbamate], the IC50 came out at 18 nM in experiment [1], 50 nM in experiment [2] (25 °C) and 70 nM in experiment [3] (25 °C).

`C[C@H](NC(=O)OCc1ccccc1)C(=O)N[C@@H](C)C(=O)NN(CC(N)=O)C(=O)C=CC(=O)Nc1ccccc1` [benzyl N-[(1S)-1-{[(2S)-1-[(2E)-3-[N-(carbamoylmethyl)hydrazido]-N-phenylprop-2-enamide]-1-oxopropan-2-yl]carbamoyl}ethyl]carbamate]: the IC50 in experiment [1] amounted to 10 nM; in experiment [2] (pH 6.8, 22 °C), 20 nM; in experiment [3] (pH 6.8, 22 °C) it was 700 nM.

As for `C[C@H](NC(=O)OCc1ccccc1)C(=O)N[C@@H](C)C(=O)NN(CC(N)=O)C(=O)C=CC(=O)N(C)c1ccccc1` [benzyl N-[(1S)-1-{[(2S)-1-[(2E)-3-[N-(carbamoylmethyl)hydrazido]-N-methyl-N-phenylprop-2-enamide]-1-oxopropan-2-yl]carbamoyl}ethyl]carbamate], the IC50 in experiment [1] amounted to 1.8 nM; in experiment [2] (pH 6.8, 22 °C), 5 nM; in experiment [3] (pH 6.8, 22 °C), 60 nM.

On to `C[C@H](NC(=O)OCc1ccccc1)C(=O)N[C@@H](C)C(=O)NN(CC(N)=O)C(=O)C=CC(=O)N1Cc2ccccc2C1` [benzyl N-[(1S)-1-{[(1S)-1-[N'-(carbamoylmethyl)-N'-[(2E)-4-(2,3-dihydro-1H-isoindol-2-yl)-4-oxobut-2-enoyl]hydrazinecarbonyl]ethyl]carbamoyl}ethyl]carbamate], for which the IC50 in experiment [1] came to 4.5 nM; in experiment [2] (25 °C), 20 nM; in experiment [3] (25 °C), 300 nM.

For `C[C@H](NC(=O)OCc1ccccc1)C(=O)N[C@@H](C)C(=O)NN(CC(N)=O)C(=O)C=CC(=O)N1CCc2ccccc2C1` [benzyl N-[(1S)-1-{[(2S)-1-[(2E)-N-(carbamoylmethyl)-4-oxo-4-(1,2,3,4-tetrahydroisoquinolin-2-yl)but-2-enehydrazido]-1-oxopropan-2-yl]carbamoyl}ethyl]carbamate], the IC50 in experiment [1] was found to be 25 nM; in experiment [2] (25 °C), 10 nM; in experiment [3] (25 °C), 200 nM.

For the compound `C[C@H](NC(=O)OCc1ccccc1)C(=O)N[C@@H](C)C(=O)NN(CC(N)=O)C(=O)C=CC(=O)N(Cc1ccccc1)Cc1cccc2ccccc12` [benzyl N-[(1S)-1-{[(2S)-1-[(2E)-N-benzyl-3-[N-(carbamoylmethyl)hydrazido]-N-(naphthalen-1-ylmethyl)prop-2-enamide]-1-oxopropan-2-yl]carbamoyl}ethyl]carbamate], the IC50 in experiment [1] is 6 nM; in experiment [2] (25 °C), below 1 nM; in experiment [3] (25 °C), 62 nM.

Turning to `CCCCN(CCCC)C(=O)C=CC(=O)N(CC(N)=O)NC(=O)[C@H](C)NC(=O)[C@H](C)NC(=O)OCc1ccccc1` [benzyl N-[(1S)-1-{[(1S)-1-[N'-(carbamoylmethyl)-N'-[(2E)-3-(dibutylcarbamoyl)prop-2-enoyl]hydrazinecarbonyl]ethyl]carbamoyl}ethyl]carbamate], the IC50 stood at 100 nM in experiment [1]; 1000 nM in experiment [2] (pH 6.8, 22 °C); 550 nM in experiment [3] (pH 6.8, 22 °C).

For the compound `C[C@H](NC(=O)OCc1ccccc1)C(=O)N[C@@H](C)C(=O)NN(CC(N)=O)C(=O)C=CC(=O)N(Cc1ccccc1)Cc1ccc(F)cc1` [benzyl N-[(1S)-1-{[(2S)-1-[(2E)-N-benzyl-3-[N-(carbamoylmethyl)hydrazido]-N-[(4-fluorophenyl)methyl]prop-2-enamide]-1-oxopropan-2-yl]carbamoyl}ethyl]carbamate], the values for the IC50 in experiment [1], in experiment [2] (25 °C) and in experiment [3] (25 °C) were 700 nM, below 1 nM and 60 nM, respectively.

Take `CCOC(=O)C=CC(=O)N(CC(N)=O)NC(=O)[C@H](C)NC(=O)[C@H](C)NC(=O)CCCC[C@@H]1SC[C@@H]2NC(=O)N[C@@H]21` [ethyl (2E)-4-[(2S)-2-[(2S)-2-{5-[(3aS,4S,6aR)-2-oxo-hexahydro-1H-thieno[3,4-d]imidazolidin-4-yl]pentanamido}propanamido]-N'-(carbamoylmethyl)propanehydrazido]-4-oxobut-2-enoate]: the IC50 in experiment [1] was 2.8 nM; in experiment [2] (25 °C), below 10 nM; in experiment [3] (25 °C), 10 nM.

Regarding `COc1ccc(CN(Cc2ccccc2)C(=O)C=CC(=O)N(CC(N)=O)NC(=O)[C@H](C)NC(=O)[C@H](C)NC(=O)OCc2ccccc2)cc1` [benzyl N-[(1S)-1-{[(2S)-1-[(2E)-N-benzyl-3-[N-(carbamoylmethyl)hydrazido]-N-[(4-methoxyphenyl)methyl]prop-2-enamide]-1-oxopropan-2-yl]carbamoyl}ethyl]carbamate], the IC50 is 12 nM in experiment [1]; 2.3 nM in experiment [2] (25 °C); 90 nM in experiment [3] (pH 6.8, 22 °C).

`C[C@H](NC(=O)OCc1ccccc1)C(=O)N[C@@H](C)C(=O)NN(CC(N)=O)C(=O)C=CC(=O)N1CC=C(c2ccccc2)CC1` [benzyl N-[(1S)-1-{[(2S)-1-[(2E)-N-(carbamoylmethyl)-4-oxo-4-(4-phenyl-1,2,3,6-tetrahydropyridin-1-yl)but-2-enehydrazido]-1-oxopropan-2-yl]carbamoyl}ethyl]carbamate]: the values for the IC50 in experiment [1], in experiment [2] (25 °C) and in experiment [3] (25 °C) were 85 nM, 10 nM and 750 nM, respectively.

In the case of `C[C@H](NC(=O)OCc1ccccc1)C(=O)N[C@@H](C)C(=O)NN(CC(N)=O)C(=O)C=CC(=O)NCc1ccc(F)cc1` [benzyl N-[(1S)-1-{[(2S)-1-[(2E)-3-[N-(carbamoylmethyl)hydrazido]-N-[(4-fluorophenyl)methyl]prop-2-enamide]-1-oxopropan-2-yl]carbamoyl}ethyl]carbamate], the IC50 in experiment [1] is 250 nM; in experiment [2] (pH 6.8, 22 °C), 75 nM; in experiment [3] (pH 6.8, 22 °C), 800 nM.

With `C[C@H](NC(=O)OCc1ccccc1)C(=O)N[C@@H](C)C(=O)NN(CC(N)=O)C(=O)C=CC(=O)N1CCCc2ccccc21` [benzyl N-[(1S)-1-{[(2S)-1-[(2E)-N-(carbamoylmethyl)-4-oxo-4-(1,2,3,4-tetrahydroquinolin-1-yl)but-2-enehydrazido]-1-oxopropan-2-yl]carbamoyl}ethyl]carbamate], the IC50 in experiment [1] came to 4 nM; in experiment [2] (25 °C), 3.5 nM; in experiment [3] (25 °C) it was 70 nM.

For `C[C@H](NC(=O)OCc1ccccc1)C(=O)N[C@@H](C)C(=O)NN(CC(N)=O)C(=O)C=CC(=O)N(Cc1ccccc1)Cc1ccc2ccccc2c1` [benzyl N-[(1S)-1-{[(2S)-1-[(2E)-N-benzyl-3-[N-(carbamoylmethyl)hydrazido]-N-(naphthalen-2-ylmethyl)prop-2-enamide]-1-oxopropan-2-yl]carbamoyl}ethyl]carbamate], the IC50 in experiment [1] came out at 8 nM; in experiment [2] (25 °C), 6 nM; in experiment [3] (25 °C), 70 nM.

Usually IC50 stands for the concentration that gives 50% inhibition.
